{"source": "the NIST ThermoML archive (doi:10.1021/acs.jced.5b01053)", "key": {"[1]": {"conditions": "298.15 K; 101.33 kPa; Crystal; Vibrating tube method"}, "[2]": {"assay": "Molar enthalpy of transition or fusion", "conditions": "Crystal; DSC"}, "[3]": {"assay": "Solid-liquid equilibrium temperature", "conditions": "101 kPa; Crystal; DTA"}}, "note": "Numbers after ± are expanded uncertainties.", "data": [{"smiles": "CS(=O)(=O)c1ccc(C=O)cc1", "note": "[4-(methylsulfonyl)benzaldehyde]", "values": [{"measurement": "mass density", "setting": "[1]", "value": "1289 ± 3", "unit": "kg/m3"}, {"measurement": "Molar enthalpy of transition or fusion", "setting": "[2]", "value": "6.26 ± 0.229", "unit": "kcal/mol"}, {"measurement": "Solid-liquid equilibrium temperature", "setting": "[3]", "value": "431.49 ± 1", "unit": "K"}]}]}
